Reference: the supplement of paper PMC13380429

Key:
Conditions in all cases: 72 h
Calu-3 [1] = test: drug sensitivity score (DSS) for viability; higher = more toxic; extreme values may be limits of the assay
Vero E6 [2] = test: as above
U2OS [3] = test: as above
HepG2 [4] = test: as above
Caco-2 [5] = test: as above
Calu-3 [6] = test: relative viability EC50 (midpoint between 100% and the lowest measured viability); higher = less toxic
Vero E6 [7] = test: as above
U2OS [8] = test: as above
HepG2 [9] = test: as above
Caco-2 [10] = test: as above
Calu-3 [11] = test: cell viability relative to DMSO; higher = less toxic
Vero E6 [12] = test: as above
U2OS [13] = test: as above
HepG2 [14] = test: as above
Caco-2 [15] = test: as above

Structure (SMILES)	drug sensitivity score (Calu-3 [1])	drug sensitivity score (Vero E6 [2])	drug sensitivity score (U2OS [3])	drug sensitivity score (HepG2 [4])	drug sensitivity score (Caco-2 [5])	relative viability EC50 (Calu-3 [6])	relative viability EC50 (Vero E6 [7])	relative viability EC50 (U2OS [8])	relative viability EC50 (HepG2 [9])	relative viability EC50 (Caco-2 [10])	cell viability (Calu-3 [11]; 1 nM)	cell viability (Calu-3 [11]; 10 nM)	cell viability (Calu-3 [11]; 100 nM)	cell viability (Calu-3 [11]; 1000 nM)	cell viability (Calu-3 [11]; 10000 nM)	cell viability (Vero E6 [12]; 1 nM)	cell viability (Vero E6 [12]; 10 nM)	cell viability (Vero E6 [12]; 100 nM)	cell viability (Vero E6 [12]; 1000 nM)	cell viability (Vero E6 [12]; 10000 nM)	cell viability (U2OS [13]; 1 nM)	cell viability (U2OS [13]; 10 nM)	cell viability (U2OS [13]; 100 nM)	cell viability (U2OS [13]; 1000 nM)	cell viability (U2OS [13]; 10000 nM)	cell viability (HepG2 [14]; 1 nM)	cell viability (HepG2 [14]; 10 nM)	cell viability (HepG2 [14]; 100 nM)	cell viability (HepG2 [14]; 1000 nM)	cell viability (HepG2 [14]; 10000 nM)	cell viability (Caco-2 [15]; 1 nM)	cell viability (Caco-2 [15]; 10 nM)	cell viability (Caco-2 [15]; 100 nM)	cell viability (Caco-2 [15]; 1000 nM)	cell viability (Caco-2 [15]; 10000 nM)
Cn1cc(-c2ccc3nnc(C(F)(F)c4ccc5ncccc5c4)n3n2)cn1	0	0	0	0	0	> 10 µM	> 10 µM	> 10 µM	> 10 µM	> 10 µM	97.4%	104%	89.6%	108%	106%	99.9%	107%	101%	97.8%	92.4%	104%	101%	101%	95.5%	96.9%	102%	94.3%	105%	109%	104%	105%	96%	95.3%	95.9%	92.3%
NC(=O)N1c2ccccc2C=Cc2ccccc21 [carbamazepine]	0	0	0	0	0	> 10 µM	> 10 µM	> 10 µM	> 10 µM	> 10 µM	91.2%	91.9%	90.3%	98.4%	98.9%	106%	98.4%	98.8%	95.1%	95.7%	101%	97.2%	101%	96.4%	104%	107%	110%	88.9%	98.6%	101%	104%	96.9%	98.5%	97.2%	102%
CN1CC[C@@H](c2c(O)cc(O)c3c(=O)cc(-c4ccccc4Cl)oc23)[C@@H]1CO [P276-00]	8.5	10.1	11.5	16.7	9.4	0.604 µM	1.21 µM	0.878 µM	0.324 µM	0.881 µM	108%	103%	94.5%	59%	38.2%	103%	95.8%	102%	63.9%	6.1%	97.6%	100%	90.3%	49.3%	3%	114%	94.7%	101%	6.6%	7.6%	101%	108%	95.1%	57.6%	21.8%
OC(CN1CCN(c2cccc(Cl)c2)CC1)C(c1ccccc1)c1ccccc1 (stereo not given)	0	0	0	0	0	> 10 µM	> 10 µM	> 10 µM	> 10 µM	> 10 µM	102%	110%	98.6%	99.9%	104%	95.5%	96.9%	88.9%	99.7%	104%	95.2%	97.9%	98.2%	95.8%	92.8%	103%	102%	92.4%	108%	102%	93.3%	101%	101%	94.4%	105%
O=C1C=CC[C@@H]2[C@H]3CCCN4CCC[C@@H](CN12)[C@@H]34 [sophocarpine]	0	0	0	0	0	> 10 µM	> 10 µM	> 10 µM	> 10 µM	> 10 µM	98.8%	103%	103%	98%	102%	97.8%	113%	106%	109%	100%	97.3%	96.4%	100%	98.5%	106%	92.1%	99.1%	80.5%	91.2%	89.4%	93.8%	95.9%	110%	97%	90.3%
O=C(CCCCCCC(=O)Nc1ccccc1)NO [vorinostat]	9.1	7.3	8.7	9.7	6.3	0.91 µM	2.25 µM	1.7 µM	1.37 µM	2.66 µM	96.1%	96.9%	87.2%	62.1%	20.2%	99.5%	99.5%	103%	88.9%	0.3%	97.4%	96.3%	94.9%	79.5%	2.2%	111%	98.2%	98.1%	69.8%	3%	89.9%	99.9%	93.9%	93.9%	2.5%
